pIC50: −log10 of the molar value. Where only a bound is given, the exact number is not on record here.

Chain of Myc proto-oncogene protein (P01106 whole entry): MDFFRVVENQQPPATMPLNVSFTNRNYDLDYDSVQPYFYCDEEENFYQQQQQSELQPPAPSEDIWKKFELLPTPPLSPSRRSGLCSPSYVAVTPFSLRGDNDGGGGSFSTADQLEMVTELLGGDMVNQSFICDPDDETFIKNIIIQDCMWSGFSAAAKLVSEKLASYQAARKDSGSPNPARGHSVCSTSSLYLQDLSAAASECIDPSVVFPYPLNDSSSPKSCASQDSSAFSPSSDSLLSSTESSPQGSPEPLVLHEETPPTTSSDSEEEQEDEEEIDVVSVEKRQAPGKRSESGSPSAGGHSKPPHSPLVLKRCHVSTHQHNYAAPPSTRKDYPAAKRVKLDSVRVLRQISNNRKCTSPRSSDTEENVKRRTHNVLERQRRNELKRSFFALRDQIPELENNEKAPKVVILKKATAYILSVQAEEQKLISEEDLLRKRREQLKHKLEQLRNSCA

This test concerns the target Myc proto-oncogene protein (Homo sapiens, UniProt P01106). Briefly: Inhibition of human c-Myc assessed as reduction in c-Myc/Max/Ebox DNA complex formation using pre-formed complex of c-Myc and biotinylated DNA containing single Ebox-sequence followed by compound addition and further addition of his6-tagged c-Max and incubated for 2 hrs by AlphaScreen assay. A general note: Alpha assays give light when donor and acceptor beads are brought close together.
For orientation: pIC50 means −log10 of the IC50, conventionally taken in molar units. On to `O=C(Nc1sc2c(c1-c1nc3ccccc3s1)CCNC2)C1CNC1`, for which the pIC50 is over 6.52. With `CC(C)N1CCc2c(sc(NC(=O)CCNc3ccccc3)c2-c2nc3ccccc3s2)C1` the figure was under 5.00. With `CCOc1ccc(-c2ccc3nc(-c4c(NC(=O)CCNCCOC)sc5c4CCNC5)sc3c2)cn1` the figure was 5.00 to 6.00; with `COCCNCCC(=O)Nc1sc2c(c1-c1nc3c(C)cccc3o1)CCNC2`, 6.00 to 6.52. For `O=C(CC1COCCN1)Nc1sc2c(c1-c1nc3ccccc3s1)CCNC2` (stereo not drawn) the value was 6.00 to 6.52; for `COc1ccc(-c2ccc3sc(-c4c(NC(=O)CCNC(C)C)sc5c4CCNC5)nc3c2)cc1`, over 6.52; for `CC(C)N1CCc2c(sc(NC(=O)CCNc3cccc(O)c3)c2-c2nc3ccccc3s2)C1`, 5.00 to 6.00. As to `COCCNCCC(=O)Nc1sc2c(c1-c1nc3ccc(-c4ccc5c(c4)OCO5)cc3s1)CCNC2`, the negative logarithm of the IC50 (pIC50) is under 5.00. Take `CC(C)N1CCc2c(sc(NC(=O)CCNc3cccc(F)c3)c2-c2nc3ccccc3s2)C1`: the pIC50 was under 5.00.

As to `COCCNCCC(=O)Nc1sc2c(c1-c1nc3ccc(-c4ccc(C)c(C#N)c4)cc3s1)CCNC2`, the negative-log IC50 (pIC50) is under 5.00. For `CC(NCCC(=O)Nc1sc2c(c1-c1nc3ccccc3s1)CCN(C(C)C)C2)c1ccncc1` (stereo not drawn), the negative logarithm of the IC50 (pIC50) was 5.00 to 6.00. `CCOc1ncccc1-c1ccc2nc(-c3c(NC(=O)CCNCCOC)sc4c3CCNC4)sc2c1`: the pIC50 was under 5.00.

In the case of `CNC(=O)Nc1ccc(-c2ccc3sc(-c4c(NC(=O)CCNCCOC)sc5c4CCNC5)nc3c2)cc1`, the negative-log IC50 (pIC50) was 5.00 to 6.00. With `CC(C)NCCC(=O)Nc1sc2c(c1-c1nc3cc(C4=CCNCC4)ccc3s1)CCNC2` the figure was over 6.52; with `O=C(CC1CCCN1)Nc1sc2c(c1-c1nc3ccccc3s1)CCNC2` (stereo not drawn), 6.00 to 6.52.

As to `COCCNCCC(=O)Nc1sc2c(c1-c1nc3ccc(-c4cccnc4OC)cc3s1)CCNC2`, the pIC50 is 5.00 to 6.00. As to `COc1ccccc1-c1ccc2sc(-c3c(NC(=O)CCNC(C)C)sc4c3CCNC4)nc2c1`, the pIC50 is 5.00 to 6.00. As for `COCCNCCC(=O)Nc1sc2c(c1-c1nc3cc(-c4ccc5cnn(C)c5c4)ccc3s1)CCNC2`, the negative-log IC50 (pIC50) was 6.00 to 6.52. Turning to `COc1cccc(-c2ccc3sc(-c4c(NC(=O)CCNC(C)C)sc5c4CCNC5)nc3c2)c1`, the negative-log IC50 (pIC50) was 5.00 to 6.00.

Turning to `CC(C)N1CCc2c(sc(NC(=O)CCN3CCc4ccccc4C3)c2-c2nc3ccccc3s2)C1`, the pIC50 was under 5.00.

In the case of `CC(=O)Nc1ccc(-c2ccc3sc(-c4c(NC(=O)CCNC(C)C)sc5c4CCNC5)nc3c2)cc1`, the pIC50 is 6.00 to 6.52. As to `CC(C)N1CCc2c(sc(NC(=O)CCNc3cccnc3)c2-c2nc3ccccc3s2)C1`, the pIC50 is 5.00 to 6.00. Turning to `CCC(C)N(CCC(=O)Nc1sc2c(c1-c1nc3ccccc3s1)CCN(C(C)C)C2)C(=O)OC(C)(C)C` (stereo not drawn), the pIC50 was under 5.00.

Regarding `Cc1cc(C)c(CNCCC(=O)Nc2sc3c(c2-c2nc4ccccc4s2)CCN(C(C)C)C3)c(=O)[nH]1`, the pIC50 is 5.00 to 6.00. With `COCCNCCC(=O)Nc1sc2c(c1-c1nc3cc(-c4ccc(OC)c(OC)c4)ccc3s1)CCNC2` the figure was under 5.00; with `CC(C)N1CCc2c(sc(NC(=O)CCNc3ccc(-c4nnn[nH]4)cc3)c2-c2nc3ccccc3s2)C1`, under 5.00. With `COCCNCCC(=O)Nc1sc2c(c1-c1nc3cc(-c4ccc(N5CCNCC5)nc4)ccc3s1)CCNC2` the figure was over 6.52; with `COCCNCCC(=O)Nc1sc2c(c1-c1nc3ccc(-c4ccc(N5CCOCC5)nc4)cc3s1)CCNC2`, under 5.00; with `CC(C)NCCC(=O)Nc1sc2c(c1-c1nc3cc(-c4ccccc4)ccc3s1)CCNC2`, 6.00 to 6.52.

For `COc1cccc(NCCC(=O)Nc2sc3c(c2-c2nc4ccccc4s2)CCN(C(C)C)C3)c1`, the negative logarithm of the IC50 (pIC50) was 5.00 to 6.00.

As to `CC(C)NCCC(=O)Nc1sc2c(c1-c1nc3cc(-c4nn[nH]n4)ccc3s1)CCNC2`, the negative logarithm of the IC50 (pIC50) was over 6.52. With `CC(C)NCCC(=O)Nc1sc2c(c1-c1nc3cc(-n4cncn4)ccc3s1)CCNC2` the figure was over 6.52; with `CC(C)NCCC(=O)Nc1sc2c(c1-c1nc3cc(C#N)ccc3s1)CCNC2`, over 6.52.

Values taken from ChEMBL document CHEMBL4476874, “Compounds for the modulation of myc activity” (2018).
